Data from US20060241078A1, “Pharmaceutical compositions comprising a contraceptive agent in solution and a teratogen” (priority 2005, published 2006).

Assay: Solubility of estrogen and progestin in solubilizing agents and oils (visual, dropwise solvent addition);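 further: about 10 mg estrogen or progestin titrated with solubilizing agent or oil, added dropwise with shaking until fully dissolved, completion judged by eye under light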
[1] = solvent/oil: MAPEG 400 DO PEG ester
[2] = solvent/oil: Supernatant of soybean oil containing isotretinoin (40 mg isotretinoin particles in 1 gram of oil, particles removed by centrifugation)

For `C#C[C@]1(OC(C)=O)CC[C@H]2[C@@H]3CCC4=CC(=NO)CC[C@@H]4[C@H]3CC[C@@]21CC` (mixture of isomers) [Norgestimate, norgestimate], the Solubility (solvent/oil: Crodamol EO) was 2.6 mg drug/g solvent or oil, the Solubility (solvent/oil: Crodamol GTCC-PN) was 3.4 mg drug/g solvent or oil and the Solubility (solvent/oil: Crovol A40) was 6.7 mg drug/g solvent or oil. For the same molecule, the Solubility (solvent/oil: Ethanol) was 20.5 mg drug/g solvent or oil, the Solubility [1] was 9.5 mg drug/g solvent or oil and the Solubility (solvent/oil: Myvacet 9-45K) was 4.3 mg drug/g solvent or oil. For the same molecule, the Solubility (solvent/oil: Soybean oil) was 1.9 mg drug/g solvent or oil and the Solubility [2] was 0.802 mg drug/g solvent or oil.

For `C#C[C@]1(O)CC[C@H]2[C@@H]3CCc4cc(O)ccc4[C@H]3CC[C@@]21C` [Ethinyl estradiol, ethinyl estradiol], the Solubility (solvent/oil: Crodamol EO) was 12.94 mg drug/g solvent or oil, the Solubility (solvent/oil: Crodamol GTCC-PN) was 12.03 mg drug/g solvent or oil and the Solubility (solvent/oil: Crovol A40) was 21.37 mg drug/g solvent or oil. The Solubility (solvent/oil: Ethanol) was 206 mg drug/g solvent or oil, the Solubility [1] was 12.08 mg drug/g solvent or oil and the Solubility (solvent/oil: Myvacet 9-45K) was 18.08 mg drug/g solvent or oil. The Solubility (solvent/oil: Soybean oil) was 5.32 mg drug/g solvent or oil and the Solubility [2] was 2.89 mg drug/g solvent or oil.

For `C#C[C@]1(OC(C)=O)CC[C@H]2[C@@H]3CCC4=CC(=O)CC[C@@H]4[C@H]3CC[C@@]21C` [Norethindrone Acetate, norethindrone acetate], the Solubility (solvent/oil: Crodamol EO) was 14.42 mg drug/g solvent or oil, the Solubility (solvent/oil: Crodamol GTCC-PN) was 17.94 mg drug/g solvent or oil and the Solubility (solvent/oil: Crovol A40) was 15.85 mg drug/g solvent or oil. The Solubility (solvent/oil: Ethanol) was 49.46 mg drug/g solvent or oil, the Solubility [1] was 9.34 mg drug/g solvent or oil and the Solubility (solvent/oil: Myvacet 9-45K) was 14.47 mg drug/g solvent or oil. The Solubility (solvent/oil: Soybean oil) was 6.41 mg drug/g solvent or oil and the Solubility [2] was 3.92 mg drug/g solvent or oil.
